These results are taken from patent US12338203B2 (TAISHO PHARMACEUTICAL CO., LTD., priority 2019, dated 2025).

The target of the assay is T1, human LPAR1 (Homo sapiens, UniProt Q92633).
T1 construct: expressed in transfected cells
The assay is described as follows: Test Example 1: antagonism against response of LPA-induced increase in intracellular Ca2+ concentration in RH7777 cells stably expressing human LPAR1. The format is cell-based. Particulars: RH7777 cells stably expressing human LPAR1; Fluo-4 fluorescence, FDSS6000; read-out: IC50 value (concentration producing 50% antagonism against response of LPA-induced increase in intracellular Ca2+ concentration) (converted). As to the method:
(1) Preparation of RH7777 cells stably expressing human LPAR1
The human LPAR1 expression vector was transfected into RH7777 cells to acquire human LPAR1 expressing cells.
(2) Test of antagonism against response of LPA-induced increase in intracellular Ca^2+ concentration
Cells stably expressing human LPAR1 were used for a test of antagonism against response of LPA-induced increase in intracellular Ca^2+ concentration.
The cells were seeded onto the Poly-D-Lysine 96 well black plate and incubated overnight. […] 50 μL of the Basal Buffer (1×HBSS, 20 mM HEPES, 2.5 mM Probenecid, 0.05% BSA, 0.25 mg/mL Amaranth, pH 7.4) containing the test compound was added thereto, followed by incubation at 37° C. for 30 minutes. In FDSS6000 (Hamamatsu Photonics K.K.), LPAs were added, and the change in intracellular Ca^2+ concentration was detected using the fluorescence value of a wavelength of 540 nm by an excitation wavelength of 480 nm as an indicator. […] The Rmax under […] without the test compound was used as the control value. The Rmax under Basal Buffer stimulation with no LPAs or test compounds was used as the basal value.
The percentage (%) of increase in intracellular Ca^2+ concentration was calculated by dividing the value obtained by subtracting the basal value from Rmax in the presence of LPAs and each concentration of the test compound by the value obtained by subtracting the basal value from the control value. The concentration of each test compound was plotted on the X axis and the percentage (%) of increase in intracellular Ca^2+ concentration was plotted on the Y axis, and the IC50 value was calculated by nonlinear regression using XLfit.

T1 sequence (Q92633 whole entry): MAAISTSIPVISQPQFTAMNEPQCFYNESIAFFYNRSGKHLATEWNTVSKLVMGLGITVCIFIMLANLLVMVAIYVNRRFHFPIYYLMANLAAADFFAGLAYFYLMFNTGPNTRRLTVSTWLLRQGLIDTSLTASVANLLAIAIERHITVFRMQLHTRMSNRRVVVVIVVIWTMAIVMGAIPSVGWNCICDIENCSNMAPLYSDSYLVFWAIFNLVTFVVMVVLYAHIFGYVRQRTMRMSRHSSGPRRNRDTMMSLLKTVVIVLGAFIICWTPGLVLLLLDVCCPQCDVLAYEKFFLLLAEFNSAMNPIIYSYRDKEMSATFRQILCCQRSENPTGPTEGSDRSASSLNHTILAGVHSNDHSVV

With `CCOc1cc([C@@H](C)N(CCCC(F)(F)c2ccccc2)C(=O)NC2(C(=O)O)CC2)cc(OCC)c1C(C)=O` [Example 4-45], the IC50 was 1.59 nM.

In the case of `CCNc1cc(C(C)N(CCCCc2ccccc2)C(=O)NC2(C(=O)O)CCC2)cc(OCC)c1C#N` (centres unmarked) [Example 5-113], the IC50 was 3.58 nM.

With `CCOc1cc([C@@H](C)N(CCCC(F)(F)c2ccccc2)C(=O)NC2(C(=O)O)CC(OC)C2)cc(OCC)c1C1CC1` (some centres unmarked) [Example 4-67], the IC50 is 1.27 nM.

Turning to `CCCOc1cc(C(C)N(CCCCc2ccccc2)C(=O)NC2(C(=O)O)CC(F)(F)C2)cc(OCC)c1C` (centres unmarked) [Example 1-69], the IC50 is 5.04 nM.

On to `CCOc1cc(C(C)N(CCOC(C)c2ccccc2)C(=O)NC2(c3nn[nH]n3)CC(OC)C2)cc(OCC)c1C(C)=O` (centres unmarked) [Example 10-16], for which the IC50 was 4.86 nM.

Consider `CCOc1cc([C@@H](C)N(CCCc2ccccc2F)C(=O)NC2(C(=O)O)CC(F)(F)C2)cc(OCC)c1C` [Example 4-4, 1-({[(1R)-1-(3,5-Diethoxy-4-Methylphenyl)Ethyl][3-(2-Fluorophenyl) Propyl]Carbamoyl}Amino)-3,3-Difluorocyclobutane-1-Carboxylic Acid], for which the IC50 is 9.64 nM.

For the compound `CCOc1cc([C@@H](C)N(CCCCc2ccccc2)C(=O)NC2(C(=O)O)CCOCC2)c(Cl)c(OCC)c1C(C)=O` [Example 5-51], the IC50 is 2.56 nM.

For the compound `CCOc1c(C2CC2)ccc([C@@H](C)N(CCO[C@H](C)c2cccc(Cl)c2)C(=O)NC2(C(=O)O)CC(F)(F)C2)c1C` [Example 4-181], the IC50 is 3.27 nM.

As for `CCOc1cc([C@@H](C)N(CCCC(F)(F)c2ccccc2)C(=O)NC2(C(=O)O)CCOCC2)cc(OCC)c1C(C)O` (some centres unmarked) [Example 4-76], the IC50 is 10.7 nM.

Turning to `CCNc1cc(C(C)N(CCCCc2ccccc2)C(=O)NC2(C(=O)O)CCS(=O)(=O)CC2)cc(OCC)c1C(C)=O` (centres unmarked) [Example 5-105], the IC50 was 12.2 nM.

`CCOc1cc([C@@H](C)N(CCOCc2ccccc2)C(=O)NC2(C(=O)O)CC(OC)C2)cc(OCC)c1C(C)=O` (some centres unmarked) [Example 4-108]: the IC50 was 3.6 nM.

On to `CCOc1cc(C(CO)N(CCCCc2ccccc2)C(=O)NC2(C(=O)O)CC(F)(F)C2)cc(OCC)c1C` (centres unmarked) [Example 3-5], for which the IC50 was 4.88 nM.

As to `CCOc1cc([C@@H](C)N(CCOCc2ccccc2)C(=O)NC2(C(=O)O)CC(F)(F)C2)c(Cl)c(OCC)c1C(C)O` (single isomer, unassigned) [Example 5-55], the IC50 was 1.09 nM.

As to `CCOc1cc([C@@H](C)N(CCCCc2ccccc2)C(=O)NC2(C(=O)O)CC(OC)C2)cc(OCC)c1C(C)O` (single isomer, unassigned) [Example 1-88], the IC50 was 3.35 nM.

As to `COc1cc(C(CO)N(CCCCc2ccccc2)C(=O)NC2(C(=O)O)CCCC2)cc(OC)c1C` (centres unmarked) [Example 3-7], the IC50 is 74.5 nM.

Consider `CCOc1cc([C@@H](C)N(CCC2Cc3ccccc3C2)C(=O)NC2(C(=O)O)CC(OC)C2)cc(OCC)c1C(C)=O` (some centres unmarked) [Example 4-23], for which the IC50 was 7.17 nM.

As for `CCOc1cc([C@@H](C)N(CCO[C@@H](C)c2ccccc2)C(=O)NC2(C(=O)O)CCC2)cc(OCC)c1C1CC1` [Example 4-115], the IC50 is 1.23 nM.

In the case of `CCNc1cc([C@@H](C)N(CCCCc2ccccc2)C(=O)NC2(C(=O)O)CC(F)(F)C2)cc(OCC)c1C(C)=O` [Example 5-108], the IC50 was 1.51 nM.

In the case of `CCOc1cc(C(C)N(CCCCc2ccccc2)C(=O)NC2CC(C(=O)O)C2)cc(OCC)c1C(C)=O` (centres unmarked) [Example 1-128], the IC50 is 6.38 nM.

With `CCOc1cc([C@@H](C)N(CCO[C@@H](C)c2ccccc2)C(=O)NC2(C(=O)O)CC(OC)C2)cc(OCC)c1C(C)O` (some centres unmarked) [Example 4-124], the IC50 is 5.44 nM.

`CCOc1cc([C@@H](C)N(CCC(F)(F)Cc2ccccc2)C(=O)NC2(C(=O)O)CC(F)(F)C2)cc(OCC)c1C(C)=O` [Example 4-84]: the IC50 was 2.88 nM.

As to `CCOc1cc([C@@H](C)N(C(=O)NC2(C(=O)O)CC(F)(F)C2)C2CC(Cc3ccccc3)C2)cc(OCC)c1C` (some centres unmarked) [Example 4-43], the IC50 is 37.2 nM.

Turning to `CCOc1cc([C@@H](C)N(CCO[C@@H](C)c2ccccc2)C(=O)N[C@]2(C(=O)O)C[C@@H](OCC)C2)cc(OCC)c1C(C)=O` [Example 4-97, Trans-1-[([(1R)-1-(4-Acetyl-3,5-Diethoxyphenyl)Ethyl]{2-[(1S)-1-Phenylethoxy]Ethyl}Carbamoyl)Amino]-3-Ethoxycyclobutane-1-Carboxylic Acid], the IC50 is 3.63 nM.

For `CCOc1cc([C@@H](C)N(CCO[C@@H](C)c2ccccc2)C(=O)N[C@]2(C(=O)O)C[C@H](OCC)C2)cc(OCC)c1C(C)O` (some centres unmarked) [Example 4-134], the IC50 is 3.92 nM.

Turning to `CCOc1cc([C@@H](C)N(CCO[C@@H](C)c2ccccc2)C(=O)NC2(C(=O)O)CC(OCC)C2)c(C)c(OCC)c1C(C)=O` (some centres unmarked) [Example 5-119], the IC50 was 2.91 nM.

In the case of `CCOc1cc([C@@H](C)N(CCO[C@@H](C)c2ccccc2)C(=O)NC2(C(=O)O)CC2)c(Cl)c(OCC)c1C(C)=O` [Example 5-31, 1-[([(1R)-1-(4-acetyl-2-chloro-3,5-diethoxyphenyl)ethyl]{2-[(1S)-1-phenylethoxy]ethyl}carbamoyl)amino]cyclopropane-1-carboxylic acid], the IC50 is 2.59 nM.

Take `CCOc1cc([C@@H](C)N(CCCCC(C)C)C(=O)NC2(C(=O)O)CC(F)(F)C2)cc(OCC)c1C` [Example 4-2]: the IC50 is 8.34 nM.

For `CCC(c1cc(OC)c(C)c(OC)c1)N(CCCCc1ccccc1)C(=O)NC1(C(=O)O)CC(F)(F)C1` (centres unmarked) [Example 3-3], the IC50 is 30.1 nM.

`CCOc1cc([C@@H](C)N(CC(C)CCc2ccccc2)C(=O)NC2(C(=O)O)CC(F)(F)C2)cc(OCC)c1C` (some centres unmarked) [Example 4-38]: the IC50 is 10.5 nM.

`CCOc1cc(C(C)N(CCCCc2ccccc2)C(=O)NC2(C(=O)O)Cc3ccccc3C2)cc(OCC)c1C` (centres unmarked) [Example 1-122]: the IC50 is 12.7 nM.

With `CCOc1cc(C(C)N(CCCCc2ccccc2)C(=O)NC2(C(=O)O)CC(F)(F)C2)cc(OCC)c1C(F)F` (centres unmarked) [Example 1-51], the IC50 is 3.52 nM.

For `CCOc1cc([C@@H](C)N(CC/C=C(\C)c2ccccc2)C(=O)NC2(C(=O)O)CC(F)(F)C2)cc(OCC)c1C` [Example 4-41], the IC50 was 4.16 nM.

For `CCOc1cc([C@@H](C)N(CCOCc2ccccc2)C(=O)N[C@]2(C(=O)O)C[C@H](OC)C2)c(C)c(OCC)c1C(C)=O` [Example 5-74], the IC50 was 1.93 nM.

As to `CCOc1cc([C@@H](C)N(CCO[C@H](C)c2ccccc2)C(=O)N[C@]2(C(=O)O)C[C@@H](OC)C2)c(Cl)c(OCC)c1C(C)=O` [Example 5-35], the IC50 was 3.97 nM.

For `CCOc1cc(C(C)N(CCCCc2ccccc2)C(=O)NC(C)(C)c2nn[nH]n2)cc(OCC)c1C(C)=O` (centres unmarked) [Example 10-2], the IC50 was 2.48 nM.

For `CCOc1cc([C@@H](C)N(CCCCc2ccccc2)C(=O)NC2(C(=O)O)CC(OC)C2)c(Cl)c(OCC)c1C(C)=O` (some centres unmarked) [Example 5-48], the IC50 was 3.77 nM.

For `CCOc1cc([C@@H](C)N(CCCCc2ccccc2)C(=O)NC2CC(C(=O)O)C2)cc(OCC)c1C1CC1` (some centres unmarked) [Example 1-130], the IC50 is 6.48 nM.

`CCOc1c(C(C)=O)ccc([C@@H](C)N(CCCCc2ccccc2)C(=O)NC2(C(=O)O)CC(OCC)C2)c1C` (some centres unmarked) [Example 1-103]: the IC50 was 4.57 nM.

As to `CCOc1cc([C@@H](C)N(CCO[C@@H](C)c2ccccc2)C(=O)N[C@]2(C(=O)O)C[C@H](OC)C2)c(C)c(OCC)c1C(C)=O` [Example 5-72], the IC50 was 3.62 nM.

As to `CCOc1cc([C@@H](C)N(CCC(F)(F)Cc2ccccc2)C(=O)NC2(C(=O)O)CC2)cc(OCC)c1C1CC1` [Example 4-80], the IC50 is 23.6 nM.

On to `CCOc1cc([C@@H](C)N(CCCCc2ccccc2)C(=O)NC2(C(=O)O)CC2)cc(OCC)c1C` [Example 1-17], for which the IC50 is 23.7 nM.

As to `CCOc1cc([C@@H](C)N(CCCC(F)(F)c2ccccc2)C(=O)NC2(C(=O)O)CC(OC)C2)cc(OCC)c1C(C)O` (single isomer, unassigned) [Example 4-62], the IC50 was 5.15 nM.

On to `COc1cc(C(C)N(CCOC(C)c2ccccc2)C(=O)NC2(C(=O)O)CCC2)c(Cl)c(OC)c1C1CC1` (centres unmarked) [Example 5-138], for which the IC50 was 3.21 nM.

Regarding `CCOc1cc([C@@H](C)N(CCCCc2ccccc2)C(=O)NC2CCC[C@H]2C(=O)O)cc(OCC)c1C(C)=O` (some centres unmarked) [Example 1-133], the IC50 is 1.21 nM.

`CCOc1cc(C(C)N(CCCCc2ccccc2)C(=O)NC2(C(=O)O)CC(F)(F)C2)cc(OCC)c1OCC` (centres unmarked) [Example 1-55]: the IC50 was 7.44 nM.

With `CCOc1cc([C@@H](C)N(CCO[C@@H](C)c2ccccc2)C(=O)N[C@]2(C(=O)O)C[C@@H](OCC)C2)c(Cl)c(OCC)c1C(C)O` (single isomer, unassigned) [Example 5-62], the IC50 is 1.56 nM.

As to `CCNc1cc([C@H](C)N(CCCCc2ccccc2)C(=O)NC2(C(=O)O)CC(F)(F)C2)cc(OCC)c1C(C)=O` [Example 5-109], the IC50 is 191 nM.
